Source: patent publication US8507674B2, “Quorum sensing inhibitor” (The University of Tokyo, priority 2007, dated 2013)

Columns and labels:
[1] = test system: Burkholderia glumae; assay: Test Example 1: production of QS signal molecules C6-HSL and C8-HSL (TLC, CV026 violacein detection); format: cell-based
Experimental: Burkholderia glumae was inoculated into an LB culture medium (produced by BD) (Difco LB Broth: containing tryptone (10.0 g), yeast extract (5.0 g), and sodium chloride (10.0 g)), and cultured at 37° C. overnight. The thus-cultured broth was subjected to bacterial collection using a centrifuge, washed with an LB culture medium twice using a fresh LB culture medium each time. […] Each of the broths was filtered by a membrane filter (0.22 μm). 0.5 mL of ethyl acetate was added to 0.5 mL of supernate from which bacteria were removed, and then the quorum sensing (QS) signal molecules were extracted using ethyl acetate. The thus-obtained ethyl acetate layer was concentrated under reduced pressure, and the residue was re-dissolved in 20 μL of methanol, producing a test liquid.
The test liquid (1 μL) was spotted on TLC to separate C6-HSL and C8-HSL, which are QS signal molecules, under the condition of developing solvent: methanol/water=70/30. After the development, a TLC plate was well dried and a culture solution containing QS signal molecule detection bacteria (Chromobacterium violaceum CV026 strain) that had been pre-cultured in an LB culture medium and agar was applied to the TLC plate, followed by the detection of C6-HSL and C8-HSL. Chromobacterium violaceum is known as a bacterium that produces purple pigment (violacein) using the QS; therefore, the CV026 strain can be used to detect QS signal molecules (Microbiology, (1997), 143, 3703-3711, (2004), 54(4), 921-934, (2007), 64(1), 165-179). After applying the detected bacteria to the TLC plate, the TLC plate was subjected to overnight cultivation at 28° C. and then detection using violacein. For quantitative determination, calibration curves showing the violacein production from C6-HSL and C8-HSL that had been chemically synthesized were obtained. From the calibration curves, the production amounts of the QS signal molecules of each compound were obtained.

[2] = test system: Burkholderia glumae; assay: Test Example 4: amount of toxoflavin produced in culture solution; format: cell-based; conditions: 0, 20, 40, 60, 80 or 100 μM, shake culturing 20 hours, FIG. 3
Experimental: (§1) Burkholderia glumae was inoculated into an LB culture medium, and cultured at 37° C. overnight. The thus-obtained culture solution was subjected to bacterial collection using a centrifuge, and washed with an LB culture medium twice using a fresh LB culture medium each time. To the bacterial cell a fresh LB culture medium was added, and then Compound (1) produced in Production Example 1 was added thereto in such a manner that its final concentration became a predetermined value (i.e., 0, 20, 40, 60, 80 or 100 μM), followed by shake culturing for 20 hours. The amount of toxoflavin produced by the bacterial cell in the culture solution was obtained by the following procedure.
(§2) Each culture solution was filtered by 0.22-μm membrane filter, and 1 mL of the filtrate was isolated. One mL of chloroform was added to the filtrate, followed by extraction. The thus-obtained chloroform layer was concentrated under reduced pressure, and an 80% (V/V) an aqueous methanol solution was added to and dissolved in the residue. The absorbance (at 260 nm) of the solution was measured, and the toxin doses were calculated from the calibration curve, which was obtained using a chemically synthesized standard toxin.

[3] = test system: Burkholderia glumae; assay: Test Example 6: onset of infection on rice, test liquid sprayed after infection; format: in vivo; conditions: for percentage of flower clusters with score 0: score 0 = less than 0.1% diseased; for percentage of flower clusters with score 0 / percentage of flower clusters with score 1 / percentage of flower clusters with score 2 / percentage of flower clusters with score 3 / percentage of flower clusters with score 4 / percentage of flower clusters with score 5: rice, 7 days; for percentage of flower clusters with score 1: score 1 = 0.1-20% diseased; for percentage of flower clusters with score 2: score 2 = 20-40% diseased; for percentage of flower clusters with score 3: score 3 = 40-60% diseased; for percentage of flower clusters with score 4: score 4 = 60-80% diseased; for percentage of flower clusters with score 5: score 5 = 80-100% diseased
Experimental: A test liquid and a culture solution for infection were prepared in the same manner as in Test Example 5, and the culture solution for infection was sprayed onto Korean rice (Milyang 23) raised in a hothouse until the flowering stage. One hour after the spraying, each test liquid (10 mL) was sprayed onto the rice. After cultivation for seven days, the onset of Burkholderia glumae infection on the rice was evaluated in the same manner as in Test Example 4. The same evaluation was conducted as the comparative test in the same manner except that water was used instead of the test liquid. Further, the same evaluation was conducted to serve as a blank using water instead of both the test liquid and the culture solution for infection.

[4] = test system: Burkholderia glumae; assay: Test Example 9: amount of toxoflavin produced in culture solution, with comparative compound; format: cell-based; conditions: 0, 20, 40, 60, 80 or 100 μM, shake culturing 20 hours, FIG. 6
Experimental: as §1, with “medium (produced by BD (Difco LB Broth: containing tryptone (10.0 g), yeast extract (5.0 g), and sodium chloride (10.0 g)),” for “medium,”
as §2, with “filtered by a 0.22-μm membrane” for “filtered by 0.22-μm membrane”, “obtained using chemically synthesized” for “obtained using a chemically synthesized”, “standard toxin. […]” for “standard toxin.”

[5] = 40 μM compound, 12 hours shake culturing
[6] = 40 μM compound, 24 hours shake culturing
[7] = 60 μM compound, 12 hours shake culturing
[8] = 60 μM compound, 24 hours shake culturing
[9] = 50 μM sprayed 1 h after infection
[10] = 100 μM sprayed 1 h after infection
[11] = 200 μM sprayed 1 h after infection

CCCc1cc(=O)n2cccc(O)c2n1 [Compound (1), 2-n-propyl-9-hydroxy-4H-pyrid[1,2-a]pyrimidin-4-one]
C6-HSL [1, 5]: 163 ng/mL | C8-HSL [1, 5]: 14 µg/mL | C6-HSL [1, 6]: 0 ng/mL | C8-HSL [1, 6]: 0 µg/mL | C6-HSL [1, 7]: 167 ng/mL | C8-HSL [1, 7]: 13 µg/mL | C6-HSL [1, 8]: 0 ng/mL | C8-HSL [1, 8]: 0 µg/mL | toxin doses produced by bacteria (toxoflavin) [2]: remarkably decreased | percentage of flower clusters with score 0 [3, 9]: 88% | percentage of flower clusters with score 0 [3, 10]: 85% | percentage of flower clusters with score 0 [3, 11]: 89% | percentage of flower clusters with score 1 [3, 9]: 2% | percentage of flower clusters with score 1 [3, 10]: 5% | percentage of flower clusters with score 1 [3, 11]: 3% | percentage of flower clusters with score 2 [3, 9]: 4% | percentage of flower clusters with score 2 [3, 10]: 3% | percentage of flower clusters with score 2 [3, 11]: 3% | percentage of flower clusters with score 3 [3, 9]: 2% | percentage of flower clusters with score 3 [3, 10]: 3% | percentage of flower clusters with score 3 [3, 11]: 2% | percentage of flower clusters with score 4 [3, 9]: 2% | percentage of flower clusters with score 4 [3, 10]: 2% | percentage of flower clusters with score 4 [3, 11]: 2% | percentage of flower clusters with score 5 [3, 9]: 2% | percentage of flower clusters with score 5 [3, 10]: 2% | percentage of flower clusters with score 5 [3, 11]: 1% | onset of Burkholderia glumae on rice ([3]; test liquid 50, 100 or 200 μM sprayed after the culture solution for infection): prevented | toxin doses produced by bacteria (toxoflavin) [4]: remarkably decreased
